These results are taken from patent publication US7989482B2, “Indoline anti-cancer agents” (Joyant Pharmaceuticals, Inc., priority 2008, dated 2011).

As a reminder, the IC50 is the midpoint of a concentration-inhibition curve.

Molecules are shown by their SMILES. Where two headings read alike, the source gives them in different places.

One assay concerns A2058 cells. The experiment in a line: Cell viability assay (CELL-TITER-GLO) in A2058 cells. Format: cell-based. The note with it: A2058 cells, 48 hour treatment, cell viability, read-out: IC50 (μM) A2058. How it is done:
(§1) Cell viability assays were run using standard protocols known to those of skill in art. Cells were plated in 96 well plates at the density of 3,000-10,000 cells per well. Twenty four hours later, cells were treated with increasing concentration of test compounds (1 nM to 1 μM). After another 48 hour, cell survival was measured using CELL-TITER-GLO® reagent (Promega) following the protocol provided by the manufacture. The IC50 value was determined as the concentration of test compound that kills 50% of the cell population.
(§2) Cell viability data generated according to the protocol described in Example 97 was generated for representative compounds in A2058 and U937 cells.

The test system of another assay is U937 cells. The experiment in a line: Cell viability assay (CELL-TITER-GLO) in U937 cells. The assay is classed as cell-based. As to conditions: U937 cells, 48 hour treatment, cell viability, read-out: IC50 (μM) U937. How it is done:
as §1, §2

With `COC(=O)c1nc2oc1C13c4cc(ccc4O[C@@H]1Nc1c(-c4ccncc4)cccc13)C[C@H](NC(=O)[C@@H](O)C(C)C)C(=O)N[C@H]2C(C)C` (some centres unmarked) [Example 41], the IC50 was above 1 µM in the assay with A2058 cells (Homo sapiens, A2058, 48 h) and above 1 µM in the assay with U937 cells (Homo sapiens, U-937, 48 h).
Turning to `COC(=O)c1nc2oc1C13c4cc(ccc4O[C@@H]1Nc1c(-c4c(C)c(C)cc(C)c4C)cccc13)C[C@H](NC(=O)[C@@H](O)C(C)C)C(=O)N[C@H]2C(C)C` (some centres unmarked) [Example 42], the concentration for half-maximal inhibition (IC50) is above 1 µM in the assay with A2058 cells (Homo sapiens, A2058, 48 h) and above 1 µM with U937 cells (Homo sapiens, U-937, 48 h).
`CC(C)[C@H](O)C(=O)N[C@H]1Cc2ccc3c(c2)C2(C4=C(C5=NCCO5)N=C(O4)[C@H](C(C)C)NC1=O)c1ccccc1N[C@H]2O3` (some centres unmarked) [Example 43]: the IC50 in the assay with A2058 cells (Homo sapiens, A2058, 48 h) turned out to be 0.533 µM; in the assay with U937 cells (Homo sapiens, U-937, 48 h), 0.697 µM.
On to `COC(=O)[C@@H]1COC(c2nc3oc2C24c5ccccc5N[C@H]2Oc2ccc(cc24)C[C@H](NC(=O)[C@@H](O)C(C)C)C(=O)N[C@H]3C(C)C)=N1` (some centres unmarked) [Example 44], for which the half-inhibitory concentration (IC50) in the assay with A2058 cells (Homo sapiens, A2058, 48 h) was above 1 µM; with U937 cells (Homo sapiens, U-937, 48 h), above 1 µM.
Consider `COC(=O)[C@H]1COC(c2nc3oc2C24c5ccccc5N[C@H]2Oc2ccc(cc24)C[C@H](NC(=O)[C@@H](O)C(C)C)C(=O)N[C@H]3C(C)C)=N1` (some centres unmarked) [Example 45], for which the concentration for half-maximal inhibition (IC50) was 0.329 µM in the assay on A2058 cells (Homo sapiens, A2058, 48 h) and 0.185 µM in the assay with U937 cells (Homo sapiens, U-937, 48 h).
The corresponding values for `CCC(O)(CC)C(=O)N[C@H]1Cc2ccc3c(c2)C2(C4=C(c5nc(C(=O)OC)co5)N=C(O4)[C@H](C(C)C)NC1=O)c1ccccc1N[C@H]2O3` (some centres unmarked) [Example 47] are 0.077 µM and 0.019 µM.
Take `COC(=O)c1coc(-c2nc3oc2C24c5ccccc5N[C@H]2Oc2ccc(cc24)C[C@H](NC(=O)[C@@H](O)C(C)(C)C)C(=O)N[C@H]3C(C)C)n1` (some centres unmarked) [Example 48]: the IC50 in the assay with A2058 cells (Homo sapiens, A2058, 48 h) was found to be 0.058 µM; in the assay with U937 cells (Homo sapiens, U-937, 48 h), 0.039 µM.
On to `COC(=O)c1coc(-c2nc3oc2C24c5ccccc5N[C@H]2Oc2ccc(cc24)C[C@H](NC(=O)[C@@H](O)C(C)(C)C)C(=O)N[C@H]3C(C)C)n1` (some centres unmarked) [Example 49], for which the IC50 in the assay with A2058 cells is 0.049 µM; with U937 cells, 0.04 µM.
Regarding `[H][C@@]1(C(=O)N[C@H]2Cc3ccc4c(c3)C3(C5=C(c6nc(C(=O)OC)co6)N=C(O5)[C@H](C(C)C)NC2=O)c2ccccc2N[C@H]3O4)CCCO1` (some centres unmarked) [Example 50], the IC50 was 0.075 µM with A2058 cells (Homo sapiens, A2058, 48 h) and 0.04 µM in the assay with U937 cells (Homo sapiens, U-937, 48 h).
The corresponding values for `COC(=O)c1coc(-c2nc3oc2C24c5ccccc5N[C@H]2Oc2ccc(cc24)C[C@H](NC(=O)C2(O)CCCCC2)C(=O)N[C@H]3C(C)C)n1` (some centres unmarked) [Example 51] are 0.056 µM and 0.04 µM.
Taken in the same sequence, the figures for `CCC(C)(O)C(=O)N[C@H]1Cc2ccc3c(c2)C2(C4=C(c5nc(C(=O)OC)co5)N=C(O4)[C@H](C(C)C)NC1=O)c1ccccc1N[C@H]2O3` (some centres unmarked) [Example 52] were 0.108 µM and 0.028 µM.
Taken in the same sequence, the figures for `CCC(C)(C)C(=O)N[C@H]1Cc2ccc3c(c2)C2(C4=C(c5nc(C(=O)OC)co5)N=C(O4)[C@H](C(C)C)NC1=O)c1ccccc1N[C@H]2O3` (some centres unmarked) [Example 53] were 0.357 µM and 0.068 µM.
As for `CCCCCCc1cccc2c1N[C@H]1Oc3ccc4cc3C21c1oc(nc1-c1nc(C(=O)OC)co1)[C@H](C(C)C)NC(=O)[C@@H](NC(=O)[C@@H](O)C(C)C)C4` (some centres unmarked) [Example 54], the IC50 stood at 0.164 µM with A2058 cells (Homo sapiens, A2058, 48 h) and 0.063 µM in the assay on U937 cells (Homo sapiens, U-937, 48 h).
As for `CCC(O)(CC)C(=O)N[C@H]1Cc2ccc3c(c2)C2(C4=C(c5nc(C(=O)O)co5)N=C(O4)[C@H](C(C)C)NC1=O)c1ccccc1N[C@H]2O3` (some centres unmarked) [Example 55], the IC50 was above 1 µM with A2058 cells (Homo sapiens) and 0.9 µM in the assay on U937 cells (Homo sapiens, U-937).
Taken in the same sequence, the figures for `CC(C)[C@H](O)C(=O)N[C@H]1Cc2ccc3c(c2)C2(C4=C(c5nc(C(=O)O)co5)N=C(O4)[C@H](C(C)C)NC1=O)c1ccccc1N[C@H]2O3` (some centres unmarked) [Example 56] were 0.841 µM and 0.736 µM.
Turning to `CNC(C(=O)N[C@H]1Cc2ccc3c(c2)C2(C4=C(c5nc(C(=O)OC)co5)N=C(O4)[C@H](C(C)C)NC1=O)c1ccccc1N[C@H]2O3)C(C)C` (some centres unmarked) [Example 57], the IC50 in the assay with A2058 cells (Homo sapiens, A2058, 48 h) was 0.313 µM; with U937 cells (Homo sapiens, U-937, 48 h), 0.111 µM.
The corresponding values for `CNC(=O)c1coc(-c2nc3oc2C24c5ccccc5N[C@H]2Oc2ccc(cc24)C[C@H](NC(=O)[C@@H](O)C(C)C)C(=O)N[C@H]3C(C)C)n1` (some centres unmarked) [Example 58] are above 1 µM and above 1 µM.
For the molecule `CC(C)[C@H](O)C(=O)N[C@H]1Cc2ccc3c(c2)C2(C4=C(c5nc(C(=O)NC(C)(C)C)co5)N=C(O4)[C@H](C(C)C)NC1=O)c1ccccc1N[C@H]2O3` (some centres unmarked) [Example 59], the half-inhibitory concentration (IC50) was determined as 0.514 µM in the assay on A2058 cells (Homo sapiens, A2058, 48 h) and 0.604 µM in the assay on U937 cells (Homo sapiens, U-937, 48 h).
Taken in the same sequence, the figures for `CC(C)[C@H](O)C(=O)N[C@H]1Cc2ccc3c(c2)C2(C4=C(c5nc(C(=O)N6CCCC6)co5)N=C(O4)[C@H](C(C)C)NC1=O)c1ccccc1N[C@H]2O3` (some centres unmarked) [Example 60] were 0.636 µM and 0.562 µM.
The corresponding values for `CCCCNC(=O)c1coc(-c2nc3oc2C24c5ccccc5N[C@H]2Oc2ccc(cc24)C[C@H](NC(=O)[C@@H](O)C(C)C)C(=O)N[C@H]3C(C)C)n1` (some centres unmarked) [Example 62] are 0.243 µM and 0.192 µM.
Turning to `CC(C)[C@H](O)C(=O)N[C@H]1Cc2ccc3c(c2)C2(C4=C(c5nc(C(=O)N6CCN(C)CC6)co5)N=C(O4)[C@H](C(C)C)NC1=O)c1ccccc1N[C@H]2O3` (some centres unmarked) [Example 63], the IC50 in the assay with A2058 cells (Homo sapiens) amounted to 0.247 µM; with U937 cells (Homo sapiens, U-937), 0.162 µM.
For `CC(C)[C@H](O)C(=O)N[C@H]1Cc2ccc3c(c2)C2(C4=C(c5nc(C(=O)NC6CCCc7ccccc76)co5)N=C(O4)[C@H](C(C)C)NC1=O)c1ccccc1N[C@H]2O3` (some centres unmarked) [Example 64], the IC50 with A2058 cells (Homo sapiens, A2058, 48 h) turned out to be 0.184 µM; in the assay on U937 cells (Homo sapiens, U-937, 48 h) it was 0.184 µM.
Turning to `CC(C)[C@H](O)C(=O)N[C@H]1Cc2ccc3c(c2)C2(C4=C(c5nc(C(=O)N(C)C)co5)N=C(O4)[C@H](C(C)C)NC1=O)c1ccccc1N[C@H]2O3` (some centres unmarked) [Example 65], the IC50 in the assay with A2058 cells (Homo sapiens, A2058, 48 h) was found to be 0.553 µM; in the assay on U937 cells (Homo sapiens, U-937, 48 h) it was 0.235 µM.
Taken in the same sequence, the figures for `CC(C)[C@H](O)C(=O)N[C@H]1Cc2ccc3c(c2)C2(C4=C(c5nc(C(N)=O)co5)N=C(O4)[C@H](C(C)C)NC1=O)c1ccccc1N[C@H]2O3` (some centres unmarked) [Example 66] were 0.363 µM and 0.218 µM.
Taken in the same sequence, the figures for `COC(=O)c1nc(-c2nc3oc2C24c5ccccc5N[C@H]2Oc2ccc(cc24)CC(NC(=O)[C@@H](O)C(C)C)C(=O)N[C@H]3C(C)C)oc1C` (some centres unmarked) [Example 67] were 0.047 µM and 0.024 µM.
Taken in the same sequence, the figures for `COC(=O)c1nc(-c2nc3oc2C24c5ccccc5N[C@H]2Oc2ccc(cc24)C[C@H](NC(=O)[C@@H](O)C(C)(C)C)C(=O)N[C@H]3C(C)C)oc1C` (some centres unmarked) [Example 68] were 0.066 µM and 0.057 µM.
As to `CCC(O)(CC)C(=O)N[C@H]1Cc2ccc3c(c2)C2(C4=C(c5nc(C(=O)OC)c(C)o5)N=C(O4)[C@H](C(C)C)NC1=O)c1ccccc1N[C@H]2O3` (some centres unmarked) [Example 69], the IC50 in the assay on A2058 cells (Homo sapiens, A2058, 48 h) is 0.17 µM; with U937 cells (Homo sapiens, U-937, 48 h), 0.081 µM.
Taken in the same sequence, the figures for `COC(=O)c1nc(-c2nc3oc2C24c5ccccc5N[C@H]2Oc2ccc(cc24)C[C@H](NC(=O)[C@@H](O)CC(C)C)C(=O)N[C@H]3C(C)C)oc1C` (some centres unmarked) [Example 70] were 0.08 µM and 0.065 µM.
The corresponding values for `COc1ccc(-c2cnc(-c3nc4oc3C35c6ccccc6N[C@H]3Oc3ccc(cc35)CC(NC(=O)[C@@H](O)C(C)C)C(=O)N[C@H]4C(C)C)o2)cc1` (some centres unmarked) [Example 71] are 0.639 µM and above 1 µM.
The corresponding values for `CC(C)[C@H](O)C(=O)NC1Cc2ccc3c(c2)C2(C4=C(c5ncc(-c6ccccc6)o5)N=C(O4)[C@H](C(C)C)NC1=O)c1ccccc1N[C@H]2O3` (some centres unmarked) [Example 72] are above 1 µM and above 1 µM.
On to `CCC(O)(CC)C(=O)N[C@H]1Cc2ccc3c(c2)C2(C4=C(c5nc(CO)co5)N=C(O4)[C@H](C(C)C)NC1=O)c1ccccc1N[C@H]2O3` (some centres unmarked) [Example 74], for which the IC50 with A2058 cells (Homo sapiens) was 0.292 µM; with U937 cells (Homo sapiens, U-937), 0.11 µM.
In the case of `CCC(O)c1coc(-c2nc3oc2C24c5ccccc5N[C@H]2Oc2ccc(cc24)C[C@H](NC(=O)[C@@H](O)C(C)C)C(=O)N[C@H]3C(C)C)n1` (some centres unmarked) [Example 75], the IC50 stood at 0.226 µM with A2058 cells (Homo sapiens, A2058, 48 h) and 0.229 µM with U937 cells (Homo sapiens, U-937, 48 h).
Taken in the same sequence, the figures for `COCc1coc(-c2nc3oc2C24c5ccccc5N[C@H]2Oc2ccc(cc24)C[C@H](NC(=O)[C@@H](O)C(C)C)C(=O)N[C@H]3C(C)C)n1` (some centres unmarked) [Example 76] were 0.114 µM and 0.127 µM.
Taken in the same sequence, the figures for `CCCCCCc1oc(-c2nc3oc2C24c5ccccc5N[C@H]2Oc2ccc(cc24)C[C@H](NC(=O)[C@@H](O)C(C)C)C(=O)N[C@H]3C(C)C)nc1C(=O)OC` (some centres unmarked) [Example 77] were 0.08 µM and 0.018 µM.
The corresponding values for `CC(C)[C@H](O)C(=O)N[C@H]1Cc2ccc3c(c2)C2(C4=C(c5ncco5)N=C(O4)[C@H](C(C)C)NC1=O)c1ccccc1N[C@H]2O3` (some centres unmarked) [Example 78] are 0.154 µM and 0.052 µM.
Consider `Cc1coc(-c2nc3oc2C24c5ccccc5N[C@H]2Oc2ccc(cc24)C[C@H](NC(=O)[C@@H](O)C(C)C)C(=O)N[C@H]3C(C)C)n1` (some centres unmarked) [Example 79], for which the IC50 came out at 0.174 µM in the assay with A2058 cells (Homo sapiens, A2058, 48 h) and 0.071 µM in the assay with U937 cells (Homo sapiens, U-937, 48 h).
Taken in the same sequence, the figures for `CCOC(=O)c1coc(-c2nc3oc2C24c5ccccc5N[C@H]2Oc2ccc(cc24)C[C@H](NC(=O)[C@@H](O)C(C)C)C(=O)N[C@H]3C(C)C)n1` (some centres unmarked) [Example 80] were 0.021 µM and 0.0013 µM.
